Test results: patent publication US20240239755A1, “SUBSTITUTED PYRIDAZINONES, SALTS OR N-OXIDES THEREOF AND THEIR USE AS HERBICIDALLY ACTIVE SUBSTANCES” (Bayer Aktiengesellschaft, priority 2021, published 2024)

What was measured:
Format in all cases: in vivo
[1] = tested on: Amaranthus retroflexus (AMARE); test: Herbicidal pre-emergence action, 1280 g/ha (Table A11); conditions: visual grading after ca. 3 weeks vs untreated controls
Source text: (§1) Seeds of mono- and dicotyledonous weed plants were sown in plastic pots (double sowings with one species of mono- and one species of dicotyledonous weed plants per pot), in sandy loam, and covered with soil. The compounds according to the invention, formulated in the form of wettable powders (WP) or as emulsifiable concentrates (EC), were applied to the surface of the covering soil as an aqueous suspension or as an emulsion, with the addition of 0.5% of an additive, at an application rate of 600 litres of water per hectare (converted). Following treatment, the pots were placed in a greenhouse and kept under optimum growth conditions for the test plants. The visual grading of the damage to the test plants was carried out after ca. 3 weeks in comparison to untreated controls (herbicidal effect in percent (%): 100% effect=plants have died, 0% effect=as control plants). Tables A1 to A11 below, show the effects of selected compounds of the general formula (I) according to Table 1 on various harmful plants and an application rate corresponding to 1280 g/ha obtained by the experimental procedure mentioned above.

Kochia scoparia (KCHSC) [2] = test: Herbicidal pre-emergence action, 1280 g/ha (Table A4); conditions: visual grading after ca. 3 weeks vs untreated controls
Source text: as §1

[3] = tested on: Abutilon theophrasti (ABUTH); test: Herbicidal post-emergence action, 1280 g/ha (Table B1); conditions: visual assessment after ca. 3 weeks vs untreated controls
Source text: (§2) Seeds of mono- and dicotyledonous weed plants were sown in plastic pots (double sowings with one species of mono- and one species of dicotyledonous weed plants per pot), in sandy loam, covered with soil and grown under controlled growth conditions. 2 to 3 weeks after sowing, the test plants were sprayed in the single-leaf stage. The compounds according to the invention, formulated in the form of wettable powders (WP) or as emulsifiable concentrates (EC), were sprayed onto the green plant parts as an aqueous suspension or as an emulsion, with the addition of 0.5% of an additive, at an application rate of 600 litres of water per hectare (converted). The test plants were placed in the greenhouse for ca. 3 weeks under optimum growth conditions, and then the effect of the preparations was assessed visually in comparison with untreated controls (herbicidal effect in percent (%): 100% effect=plants have died, 0% effect=as control plants). Tables B1 to B11 below, show the effects of selected compounds of the general formula (I) according to Table 1 on various harmful plants using an application rate corresponding to 1280 g/ha obtained by the experimental procedure mentioned above.

Stellaria media (STEME) [4] = test: Herbicidal post-emergence action, 1280 g/ha (Table B9); conditions: visual assessment after ca. 3 weeks vs untreated controls
Source text: as §2

Stellaria media (STEME) [5] = test: Herbicidal post-emergence action, 320 g/ha, STEME; conditions: visual grading after ca. 3 weeks
Source text: as §2, with “plants).” for “plants). Tables B1 to B11 below, show the effects of selected compounds of the general formula (I) according to Table 1 on various harmful plants using an application rate corresponding to 1280 g/ha obtained by the experimental procedure mentioned above.”
(§3) Tables D1 to D8 below, show the effects of selected compounds of the general formula (I) according to Table 1 on various harmful plants using an application rate corresponding to 320 g/ha obtained by the experimental procedure mentioned above.

[6] = tested on: Amaranthus retroflexus (AMARE); test: Herbicidal post-emergence action, 1280 g/ha, AMARE; conditions: visual grading vs untreated controls
Source text: as §2, with “plants).” for “plants). Tables B1 to B11 below, show the effects of selected compounds of the general formula (I) according to Table 1 on various harmful plants using an application rate corresponding to 1280 g/ha obtained by the experimental procedure mentioned above.”
(§4) Tables B1 to B11 below, show the effects of selected compounds of the general formula (I) according to Table 1 on various harmful plants using an application rate corresponding to 1280 g/ha obtained by the experimental procedure mentioned above.

[7] = tested on: Amaranthus retroflexus (AMARE); test: Herbicidal post-emergence action, 320 g/ha, AMARE; conditions: visual grading after ca. 3 weeks
Source text: as §2, with “plants).” for “plants). Tables B1 to B11 below, show the effects of selected compounds of the general formula (I) according to Table 1 on various harmful plants using an application rate corresponding to 1280 g/ha obtained by the experimental procedure mentioned above.”
as §3

Lolium rigidum (LOLRI) = test: Herbicidal pre-emergence action, 1280 g/ha (Table A5); conditions: visual grading after ca. 3 weeks vs untreated controls
Source text: as §1

[8] = tested on: Matricaria inodora (MATIN); test: Herbicidal pre-emergence action, 1280 g/ha (Table A6); conditions: visual grading after ca. 3 weeks vs untreated controls
Source text: as §1

Stellaria media (STEME) [9] = test: Herbicidal pre-emergence action, 1280 g/ha (Table A9); conditions: visual grading after ca. 3 weeks vs untreated controls
Source text: as §1

Kochia scoparia (KCHSC) [10] = test: Herbicidal post-emergence action, 1280 g/ha (Table B4); conditions: visual assessment after ca. 3 weeks vs untreated controls
Source text: as §2

Stellaria media (STEME) [11] = test: Herbicidal pre-emergence action, 320 g/ha, STEME; conditions: visual grading after ca. 3 weeks
Source text: as §1, with “plants).” for “plants). Tables A1 to A11 below, show the effects of selected compounds of the general formula (I) according to Table 1 on various harmful plants and an application rate corresponding to 1280 g/ha obtained by the experimental procedure mentioned above.”
Tables C1 to C6 below, show the effects of selected compounds of the general formula (I) according to Table 1 on various harmful plants using an application rate corresponding to 320 g/ha obtained by the experimental procedure mentioned above.

Veronica persica (VERPE) = test: Herbicidal post-emergence action, 1280 g/ha, VERPE; conditions: visual grading vs untreated controls
Source text: as §2, with “plants).” for “plants). Tables B1 to B11 below, show the effects of selected compounds of the general formula (I) according to Table 1 on various harmful plants using an application rate corresponding to 1280 g/ha obtained by the experimental procedure mentioned above.”
as §4

[12] = tested on: Matricaria inodora (MATIN); test: Herbicidal post-emergence action, 1280 g/ha (Table B6); conditions: visual assessment after ca. 3 weeks vs untreated controls
Source text: as §2

[13] = tested on: Abutilon theophrasti (ABUTH); test: Herbicidal post-emergence action, 320 g/ha, ABUTH; conditions: visual grading after ca. 3 weeks
Source text: as §2, with “plants).” for “plants). Tables B1 to B11 below, show the effects of selected compounds of the general formula (I) according to Table 1 on various harmful plants using an application rate corresponding to 1280 g/ha obtained by the experimental procedure mentioned above.”
as §3

SMILES | herbicidal effect AMARE [1] [%] | herbicidal effect KCHSC (Kochia scoparia (KCHSC) [2]) [%] | herbicidal effect ABUTH [3] [%] | herbicidal effect STEME (Stellaria media (STEME) [4]) [%] | herbicidal effect AMARE [6] [%] | herbicidal effect MATIN [8] [%] | herbicidal effect STEME (Stellaria media (STEME) [9]) [%] | further results
Cc1nn(C)c(=O)c(Oc2ccccc2)c1O [Example I-001] | 90 | – | – | – | – | – | – | –
Cc1nn(C)c(=O)c(Oc2cccc(Cl)c2)c1O [Example I-004] | 90 | 90 | 90 | 100 | – | – | – | herbicidal effect STEME (Stellaria media (STEME) [5]): 90%
Cc1nn(C)c(=O)c(Oc2cccc(C(F)(F)F)c2)c1O [Example I-005] | 100 | – | – | 90 | 100 | – | – | herbicidal effect AMARE [7]: 90%
Cc1nn(C)c(=O)c(Oc2ccccc2Br)c1O [Example I-011] | 100 | 100 | – | – | 90 | 90 | 100 | herbicidal effect LOLRI (Lolium rigidum (LOLRI)): 90%; herbicidal effect KCHSC (Kochia scoparia (KCHSC) [10]): 90%; herbicidal effect STEME (Stellaria media (STEME) [11]): 90%
Cc1cccc(Cl)c1Oc1c(O)c(C)nn(C)c1=O [Example I-023] | 90 | – | – | 90 | 90 | 90 | 90 | –
COc1ccccc1Oc1c(O)c(C)nn(C)c1=O [Example I-024] | – | – | – | 90 | 90 | – | 90 | herbicidal effect LOLRI (Lolium rigidum (LOLRI)): 90%; herbicidal effect VERPE (Veronica persica (VERPE)): 90%
Cc1nn(C)c(=O)c(Oc2cccc(F)c2Cl)c1O [Example I-025] | – | – | – | – | – | 100 | 100 | herbicidal effect STEME (Stellaria media (STEME) [11]): 100%
Cc1nn(C)c(=O)c(Oc2ccc(Cl)cc2C2CC2)c1O [Example I-035] | 90 | 100 | 90 | 90 | 90 | – | – | herbicidal effect KCHSC (Kochia scoparia (KCHSC) [10]): 90%; herbicidal effect MATIN [12]: 90%; herbicidal effect VERPE (Veronica persica (VERPE)): 90%; herbicidal effect ABUTH [13]: 90%; herbicidal effect AMARE [7]: 90%
Cc1ccc(Oc2c(O)c(C)nn(C)c2=O)c(C2CC2)c1 [Example I-037] | – | – | – | 90 | – | – | – | –
CCOC(=O)Oc1c(C)nn(C)c(=O)c1Oc1ccc(C)cc1C1CC1 [Example I-038] | – | – | 90 | – | 90 | – | – | –
